Reference: US12662479B2 (Foghorn Therapeutics Inc., priority 2020, dated 2026)
Counter-ions that a name gives are not always drawn.

What was measured:
HiBit-BRM fusion protein = biological target: T1, HiBit-BRM fusion protein (Homo sapiens, UniProt P51531); test: HiBiT-BRM cell-based degradation assay (Nano-Glo HiBiT Lytic Detection, 24 h); conditions: HeLa cells expressing HiBiT-BRM; for DC50: read-out: BRM HiBit Degradation IC50; for BRM HiBit Degradation Maximum measured: top dose 30 μM
T1 construct: expressed in transfected cells
T1 sequence (P51531 whole entry, the tested form may be a part): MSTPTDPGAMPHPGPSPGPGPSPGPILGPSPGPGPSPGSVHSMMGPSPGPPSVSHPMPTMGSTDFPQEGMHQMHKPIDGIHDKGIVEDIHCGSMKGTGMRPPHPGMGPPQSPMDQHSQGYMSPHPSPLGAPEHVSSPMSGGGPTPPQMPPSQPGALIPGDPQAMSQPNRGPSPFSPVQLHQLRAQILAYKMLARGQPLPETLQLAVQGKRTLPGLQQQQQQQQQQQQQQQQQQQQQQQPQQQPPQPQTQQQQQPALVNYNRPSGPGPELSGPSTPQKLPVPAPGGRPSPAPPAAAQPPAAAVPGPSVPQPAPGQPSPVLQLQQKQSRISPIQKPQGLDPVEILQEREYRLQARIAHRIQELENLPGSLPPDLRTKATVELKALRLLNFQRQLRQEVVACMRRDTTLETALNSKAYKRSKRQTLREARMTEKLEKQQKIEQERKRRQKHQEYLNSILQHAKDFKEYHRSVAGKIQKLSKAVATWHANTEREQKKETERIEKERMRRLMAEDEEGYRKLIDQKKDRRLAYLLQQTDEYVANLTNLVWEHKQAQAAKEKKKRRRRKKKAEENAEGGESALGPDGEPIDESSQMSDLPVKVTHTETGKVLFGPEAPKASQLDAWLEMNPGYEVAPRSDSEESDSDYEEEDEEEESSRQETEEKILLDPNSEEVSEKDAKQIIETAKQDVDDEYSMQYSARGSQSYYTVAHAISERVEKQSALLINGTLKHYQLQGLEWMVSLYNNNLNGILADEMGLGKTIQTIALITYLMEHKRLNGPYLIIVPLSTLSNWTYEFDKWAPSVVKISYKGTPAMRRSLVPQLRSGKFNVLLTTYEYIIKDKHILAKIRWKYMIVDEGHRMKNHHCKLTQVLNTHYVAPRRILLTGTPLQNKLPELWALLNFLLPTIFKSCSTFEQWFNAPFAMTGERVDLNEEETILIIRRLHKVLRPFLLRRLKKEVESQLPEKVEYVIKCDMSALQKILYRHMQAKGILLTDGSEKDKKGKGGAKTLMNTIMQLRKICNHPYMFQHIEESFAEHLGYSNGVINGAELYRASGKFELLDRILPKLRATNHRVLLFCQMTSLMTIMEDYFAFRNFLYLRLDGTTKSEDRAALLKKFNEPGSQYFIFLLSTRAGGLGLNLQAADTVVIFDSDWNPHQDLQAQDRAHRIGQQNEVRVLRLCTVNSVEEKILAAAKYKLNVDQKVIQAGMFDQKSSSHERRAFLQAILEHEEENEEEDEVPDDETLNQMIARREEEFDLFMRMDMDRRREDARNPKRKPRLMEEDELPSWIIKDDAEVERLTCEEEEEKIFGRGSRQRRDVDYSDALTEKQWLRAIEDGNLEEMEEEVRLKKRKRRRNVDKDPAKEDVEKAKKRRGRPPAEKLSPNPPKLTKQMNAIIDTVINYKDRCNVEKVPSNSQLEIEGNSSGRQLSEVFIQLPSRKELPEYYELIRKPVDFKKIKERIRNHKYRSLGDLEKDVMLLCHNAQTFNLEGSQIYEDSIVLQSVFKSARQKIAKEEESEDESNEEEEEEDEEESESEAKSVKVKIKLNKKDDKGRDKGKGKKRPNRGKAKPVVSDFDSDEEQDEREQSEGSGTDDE
In short: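 Stable HiBiT-BRM HeLa line; 24 h compound exposure, top final 30 μM, 3-fold, 10 pts in duplicate. Lytic HiBiT/LgBiT luminescence readout. % degradation vs DMSO (0%) and 2 μM known BRM/BRG1 degrader (100%).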

[1] = biological target: T2, HiBit-BRG1 fusion protein (Homo sapiens, UniProt P51532); test: HiBiT-BRG1 cell-based degradation assay (Nano-Glo HiBiT Lytic Detection, 24 h); conditions: HeLa cells expressing HiBit-BRG1 and LgBit; for DC50: read-out: BRG1 HiBit Degradation IC50; for Dmax: HeLa, top dose 30 μM, read-out: BRG1 HiBit Degradation Maximum measured
T2 construct: expressed in transfected cells
T2 sequence (P51532 whole entry, the tested form may be a part): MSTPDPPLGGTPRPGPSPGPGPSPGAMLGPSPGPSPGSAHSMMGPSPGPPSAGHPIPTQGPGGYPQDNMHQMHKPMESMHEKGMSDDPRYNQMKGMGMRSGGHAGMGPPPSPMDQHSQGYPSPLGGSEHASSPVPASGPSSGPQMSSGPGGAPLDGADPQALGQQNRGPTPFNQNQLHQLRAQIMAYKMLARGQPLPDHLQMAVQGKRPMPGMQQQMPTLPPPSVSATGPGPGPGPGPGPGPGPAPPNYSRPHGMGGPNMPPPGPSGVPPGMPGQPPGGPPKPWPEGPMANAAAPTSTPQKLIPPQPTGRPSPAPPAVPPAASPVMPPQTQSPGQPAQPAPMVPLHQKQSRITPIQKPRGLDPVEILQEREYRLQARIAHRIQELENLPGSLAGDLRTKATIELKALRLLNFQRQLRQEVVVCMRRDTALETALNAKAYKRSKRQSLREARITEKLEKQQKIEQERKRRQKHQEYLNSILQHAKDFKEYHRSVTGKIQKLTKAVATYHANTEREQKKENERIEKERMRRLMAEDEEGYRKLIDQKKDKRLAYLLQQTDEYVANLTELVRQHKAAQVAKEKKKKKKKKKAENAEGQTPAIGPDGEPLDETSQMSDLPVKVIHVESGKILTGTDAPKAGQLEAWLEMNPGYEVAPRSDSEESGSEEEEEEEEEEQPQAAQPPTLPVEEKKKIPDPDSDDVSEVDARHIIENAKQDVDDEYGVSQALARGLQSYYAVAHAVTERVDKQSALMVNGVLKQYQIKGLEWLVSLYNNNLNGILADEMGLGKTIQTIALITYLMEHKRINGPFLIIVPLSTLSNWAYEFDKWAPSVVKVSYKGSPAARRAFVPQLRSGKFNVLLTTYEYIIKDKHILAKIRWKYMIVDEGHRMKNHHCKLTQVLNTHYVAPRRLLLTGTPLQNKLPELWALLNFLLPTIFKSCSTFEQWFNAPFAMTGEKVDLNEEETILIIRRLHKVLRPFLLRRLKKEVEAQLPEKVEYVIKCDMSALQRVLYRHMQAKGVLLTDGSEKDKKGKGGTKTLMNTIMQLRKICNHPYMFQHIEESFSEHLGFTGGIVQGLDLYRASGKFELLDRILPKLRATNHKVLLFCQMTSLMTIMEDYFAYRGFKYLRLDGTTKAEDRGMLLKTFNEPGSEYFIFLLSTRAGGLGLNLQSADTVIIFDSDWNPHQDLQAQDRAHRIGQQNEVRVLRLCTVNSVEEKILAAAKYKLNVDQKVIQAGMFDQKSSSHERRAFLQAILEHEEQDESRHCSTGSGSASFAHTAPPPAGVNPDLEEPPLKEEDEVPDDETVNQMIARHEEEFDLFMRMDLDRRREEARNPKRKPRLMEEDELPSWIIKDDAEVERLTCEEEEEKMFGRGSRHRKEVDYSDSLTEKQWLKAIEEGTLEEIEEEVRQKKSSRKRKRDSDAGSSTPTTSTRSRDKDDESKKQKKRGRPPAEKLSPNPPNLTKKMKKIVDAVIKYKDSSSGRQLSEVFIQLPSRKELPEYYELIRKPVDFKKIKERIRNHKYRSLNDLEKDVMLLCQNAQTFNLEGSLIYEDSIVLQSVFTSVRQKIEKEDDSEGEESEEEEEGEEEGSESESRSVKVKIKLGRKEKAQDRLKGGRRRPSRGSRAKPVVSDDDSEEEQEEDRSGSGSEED
In short: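 Degradation is scaled from DMSO-treated cells (0%) to cells given 2 μM of a known BRM/BRG1 degrader (100%). HeLa cells stably carrying HiBiT-BRG1 plus LgBiT (5000/well) were lysed with Nano-Glo HiBiT detection reagent, shaken 10 min at RT, and luminescence read.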

| DC50 (HiBit-BRM fusion protein) | DC50 [1] | Dmax [1] | Structure (SMILES) | BRM HiBit Degradation Maximum measured (HiBit-BRM fusion protein) |
| --- | --- | --- | --- | --- |
| > 10 µM | > 10 µM | < 50% | Cc1ncsc1-c1ccc(CNC(=O)[C@@H]2C[C@@H](O)CN2C(=O)[C@@H](NC(=O)CCCCCCCCC(=O)NCCCC[C@H](NC(=O)c2ccn(S(C)(=O)=O)c2)C(=O)Nc2nc(-c3ccccc3)cs2)C(C)(C)C)cc1 [Compound 268] | C (‘C’ = Maximum degradation <50%) |
| > 10 µM | > 10 µM | < 50% | CS(=O)(=O)n1ccc(C(=O)N[C@@H](CCCCNC(=O)CCCCCCCOc2cccc3c2C(=O)N(C2CCC(=O)NC2=O)C3=O)C(=O)Nc2nc(-c3ccccc3)cs2)c1 (stereo partly drawn) [Compound 289, 8-[[2-(2,6-dioxopiperidin-3-yl)-1,3-dioxoisoindol-4-yl]oxy]-N-[(5S)-5-[(1-methanesulfonylpyrrol-3-yl)formamido]-5-[(4-phenyl-1,3-thiazol-2-yl)carbamoyl]pentyl]octanamide] | C (‘C’ = Maximum degradation <50%) |

The next lines start with the molecule.

| Structure (SMILES) | DC50 (HiBit-BRM fusion protein) | DC50 [1] | Dmax [1] | BRM HiBit Degradation Maximum measured (HiBit-BRM fusion protein) |
| --- | --- | --- | --- | --- |
| CS(=O)(=O)n1ccc(C(=O)N[C@@H](CCOCCCC(=O)N2CCC(CN3CCN(c4ccc5c(c4)C(=O)N(C4CCC(=O)NC4=O)C5=O)CC3)CC2)C(=O)Nc2nc(-c3ccccc3)cs2)c1 (stereo partly drawn) [Compound 220, N-((2S)-4-(4-(4-((4-(2-(2,6-dioxopiperidin-3-yl)-1,3-dioxoisoindolin-5-yl)piperazin-1-yl)methyl)piperidin-1-yl)-4-oxobutoxy)-1-oxo-1-((4-phenylthiazol-2-yl)amino)butan-2-yl)-1-(methylsulfonyl)-1H-pyrrole-3-carboxamide formate] | > 10 µM | > 10 µM | < 50% | C (‘C’ = Maximum degradation <50%) |
| Cc1ncsc1-c1ccc(CNC(=O)C2CC(O)CN2C(=O)C(NC(=O)CCCCCCCNC(=O)c2ccc(COCC(NC(=O)c3ccn(S(C)(=O)=O)c3)C(=O)Nc3nc(-c4ccccc4)cs3)cc2)C(C)(C)C)cc1 (stereo not shown) [Compound 174] | 0.1 to 1 µM | 0.1 to 1 µM | 50 to 75% | B (‘B’ = Maximum degradation ≥50% and ≤75%) |
| CS(=O)(=O)n1ccc(C(=O)NCC(=O)Nc2nc(-c3cccc(-c4ccnc(C5(C(=O)N6CC(CN7CCN(c8ccc9c(c8)C(=O)N(C8CCC(=O)NC8=O)C9=O)CC7)C6)CC5)c4)c3)cs2)c1 (stereo not shown) [Compound 156, N-[4-[3-(2-[1-[3-([4-[2-(2,6-dioxopiperidin-3-yl)-1,3-dioxoisoindol-5-yl]piperazin-1-yl]methyl)azetidine-1-carbonyl]cyclopropyl]pyridin-4-yl)phenyl]-1,3-thiazol-2-yl]-2-[(1-methanesulfonylpyrrol-3-yl)formamido]acetamide] | 0.1 to 1 µM | 0.1 to 1 µM | > 75% | A (‘A’ = Maximum degradation >75%) |
| CS(=O)(=O)n1ccc(C(=O)N[C@@H](COCc2ccc(C(=O)NCCCCS(=O)(=O)CCCNc3cccc4c3C(=O)N(C3CCC(=O)NC3=O)C4=O)cc2)C(=O)Nc2nc(-c3ccccc3)cs2)c1 (stereo partly drawn) [Compound 248, N-[4-(3-[[2-(2,6-dioxopiperidin-3-yl)-1,3-dioxoisoindol-4-yl]amino]propanesulfonyl)butyl]-4-[[(2S)-2-[(1-methanesulfonylpyrrol-3-yl)formamido]-2-[(4-phenyl-1,3-thiazol-2-yl)carbamoyl]ethoxy]methyl]benzamide] | 1 to 10 µM | 0.1 to 1 µM | 50 to 75% | B (‘B’ = Maximum degradation ≥50% and ≤75%) |
| CS(=O)(=O)n1ccc(C(=O)NCC(=O)Nc2nc(-c3cccc(-c4cccc(CNC(=O)C5CC5CNC(=O)COc5ccc6c(c5)C(=O)N(C5CCC(=O)NC5=O)C6=O)c4)c3)cs2)c1 (stereo not shown) [Compound 61, N-[2-[[4-[3-[3-[[[2-[[[2-[2-(2,6-dioxo-3-piperidyl)-1,3-dioxo-isoindolin-5-yl]oxyacetyl]amino]methyl]-cyclopropanecarbonyl]amino]methyl]-phenyl]phenyl]thiazol-2-yl]amino]-2-oxo-ethyl]-1-methylsulfonyl-pyrrole-3-carboxamide] | 1 to 10 µM | 0.1 to 1 µM | 50 to 75% | B (‘B’ = Maximum degradation ≥50% and ≤75%) |
